{
  "source": "paper PMC11738990",
  "about": "“A small-molecule TNIK inhibitor targets fibrosis in preclinical and clinical models” (Nature Biotechnology, 2024)",
  "key": {"MRC-5 cells": {"system": "MRC-5 cells", "assay": "TGF-β-induced α-SMA protein expression, western blot", "format": "cell-based, human", "conditions": "TGF-β1 2 ng/ml, 72 h; read-out: IC50, TGF-β-induced α-SMA/GAPDH", "experimental": "MRC-5 cells were cultured in a monolayer with DMEM high-glucose medium supplemented with 10% FBS at 37 °C with 5% CO2. Cells were seeded in six-well plates in three replicate wells per condition at a density of 2.5 × 10^5 cells per well and cultured for 24 h. […] Vehicle (2% FBS–DMEM, containing 0.1% DMSO) was added into the blank control group and the model group, and pre-incubation was continued for 2 h. Next, TGF-β1 was added into each well of the administration group and the model group (final concentration in each well was 2 ng ml^−1), and the same volume of vehicle was added into each well of the blank control group for 72 h of incubation (the culture medium was changed once after 48 h of incubation). After incubation, the cells were collected and digested with 0.5% trypsin, protein was extracted and total protein content was determined by the BCA method.\nFor whole-cell lysates, cells were collected and lysed on ice for 20 min with RIPA buffer with protease and phosphatase inhibitors (cOmplete and PhosSTOP, Roche). The protein concentration of the cell lysates was determined using the BCA Protein Assay Kit. […] Integrated intensity of bands from 16-bit blot images was used for quantitation with the software Image Studio Lite. Protein-quantification data of two independent experiments were calculated and analyzed using GraphPad."}, "[1]": {"system": "primary bronchial epithelial cells from healthy donors", "assay": "EMT by FN1, high-content analysis", "format": "cell-based, human", "conditions": "three healthy individuals", "experimental": "For the measurement of EMT by FN1, on the first day, human primary bronchial epithelial cells were seeded. After 2 d, the medium of the cells was refreshed. […] After 1 h, all cells were treated with 5 ng ml^−1 TGF-β1. On the ninth day (72 h after triggering), cells were fixed with 4% formaldehyde, stained for FN1 and with DAPI and then imaged and quantified via HCA (IN Cell Analyzer 2200, GE Healthcare).\nSegmentation and quantification of α-SMA and FN1 immunoreactivity was carried out with an HCA algorithm, with density × area (D × A) output. Data normalization of raw α-SMA or FN1 (D × A) to percent inhibition values was performed on a plate-to-plate basis.\n[…]\nμp is the average α-SMA or FN1 value of the positive control (TGF-β1 + 1 μM SB525334). μn is the average α-SMA or FN1 value of the vehicle control (TGF-β1 + 0.1% DMSO). Xi is the compound α-SMA or FN1 value. IC50 values for all compounds (if calculable, based on the point of inflection) were calculated with GraphPad Prism using non-linear fit of log (inhibitor) versus response (four parameter).\nDAPI fluorescence was applied for HCA-based quantification of the number of imaged cells on a plate-to-plate basis.\nPercent remaining cells = (Xi/μn) × 100%\nμn is the average number of nuclei of the vehicle control (TGF-β1 + 0.1% DMSO). Xi is the compound number of nuclei."}, "HK-2 cells": {"system": "HK-2 cells", "assay": "TGF-β-induced α-SMA expression, western blot", "format": "cell-based, human", "experimental": "INS018-055 stock was diluted to eight concentrations in a threefold dilution with DMSO from the final highest concentration at 10 μM. A total of 3.0 × 10^5 HK-2 cells per well were seeded into a six-well plate containing 2.0 ml culture medium at a density of 3.0 × 10^5 cells per well. The cells were cultured overnight at 37 °C. The next day, the complete medium was replaced with K-SFM medium supplemented with 0.025 mg ml^−1 bovine pituitary extract, 2.5 ng ml^−1 EGF and 1% penicillin–streptomycin for starvation. After 24 h of incubation, HK-2 cells were treated with compounds (eight concentrations, threefold dilution) for 30 min before being stimulated with 8 ng ml^−1 TGF-β for an additional 48 h. TGF-β induction was used as the maximum induction positive control. The final DMSO concentration in the assay was 0.1%. Cells were cultured for 48 h at 37 °C. The culture medium was discarded at the end of induction. Cells were washed once using ice-cold DPBS. RIPA buffer was added to lyse the cells for 20 min. Cells were collected, and the supernatant was stored at −80 °C. The total amount of protein in the lysate was determined using the BCA Protein Assay Kit.\nFor whole-cell lysates, cells were collected and lysed on ice for 20 min with RIPA buffer with protease and phosphatase inhibitors (cOmplete and PhosSTOP, Roche). The protein concentration of the cell lysates was determined using the BCA Protein Assay Kit. After denaturation, whole-cell lysates and cytoplasm and nuclear extraction fractions were loaded onto 4–12% gradient Bis-Tris gels (15 wells) and 4–20% Tris-glycine gels (26 wells), respectively. For western blot detection of target proteins, 15 μg of whole-cell lysates, 5–10 μg of the cytoplasm fraction, 1–2 μg of nuclear matrix and 2–4 μg of the chromatin fraction were loaded into each lane. For western blot detection of histone 3, 0.4–1 μg of the chromatin fraction was loaded. The gels were run for 0.5 h at 80 V before being run at 120 V for another 1 h. When electrophoresis was completed, the gels containing target proteins were transferred onto NC membrane using the iBlot 2 Gel Transfer Device for 13 min at 20 V. All membranes were blocked with 5% BSA in TBST buffer at room temperature for 1 h and then incubated with primary antibodies specific to the indicated targets in TBST buffer containing 5% BSA at 4 °C overnight. After the primary antibody, membranes were washed three times with TBST buffer before incubation with HRP-conjugated secondary antibodies at room temperature for 1 h. Membranes were stripped with Restore Western Blot Stripping Buffer (Thermo Fisher) for GAPDH reference protein detection after exposure for the target proteins. Images of blots were acquired using Image Quant LAS 4000. Integrated intensity of bands from 16-bit blot images was used for quantitation with the software Image Studio Lite. Protein-quantification data of two independent experiments were calculated and analyzed using GraphPad."}, "NHDF cells": {"system": "NHDF cells", "assay": "α-SMA evaluation in NHDF", "format": "cell-based, human", "conditions": "TGF-β 0.1 ng/ml, 72 h; read-out: IC50, α-SMA expression", "method": "The medium was then replaced with an assay medium containing or lacking (control conditions) the test compound, and TGF-β (0.1 ng ml^−1) was added or not (unstimulated control). […] All experimental conditions were performed in five replicates. For in situ immunolabeling and image analysis, at the end of the incubation, fibroblasts were rinsed, fixed and permeabilized. […] Image acquisition was performed using a high-resolution imaging system, the IN Cell Analyzer 2200 (GE Healthcare) automated microscope (objective lens, ×20). Five pictures per well were taken. Labeling was quantified by measuring the fluorescence intensity of α-SMA signals normalized to the total number of nuclei identified (integration of numerical data was performed with the Developer Toolbox 1.5, GE Healthcare software)."}, "CD-1 mice": {"system": "CD-1 mice", "conditions": "single IV; ref Insilico Medicine, 2021; cited from earlier work"}, "healthy subjects": {"system": "healthy subjects", "assay": "Phase I New Zealand safety (NCT05154240)", "conditions": "n (%) [E]"}, "C57BL/6 mice": {"system": "C57BL/6 mice", "assay": "Unilateral ureteral obstruction (UUO) kidney fibrosis model;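 also: mice had the left ureter ligated on day 0, received treatment from day 0 through day 14 and were killed on day 14 for kidney analysis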", "conditions": "for Positive area (%), per mouse: Fig 5B-D Individual Values", "method": "The surgery took place on two separate days. Mice were divided into two slots based on their body weight before the day of the surgery. On day 0 (day of surgery), UUO surgery was performed after administration of three types of mixed anesthetic agents (medetomidine, midazolam, butorphanol). Mice were shaved at the incision site, the abdomen was cut open, and the left ureter was exteriorized and ligated with 4-0 silk sutures at two points. Finally, the peritoneum and the skin were closed with sutures.\nTreatments were applied from day 0 to day 14. And animals were killed on day 14, and blood and tissue samples were collected.\nFrozen kidney samples were processed by an alkaline acid hydrolysis method as follows. […] Next, AC buffer (2.2 M acetic acid and 0.48 M citric acid, 400 μl) was added to the samples, followed by centrifugation to collect the supernatant. […] The samples were then mixed with Ehrlich’s solution (400 μl) and heated at 65 °C for 20 min to develop color. After samples were cooled on ice and centrifuged to remove precipitates, the optical density of each supernatant was measured at 560 nm. Hydroxyproline concentrations were calculated from the hydroxyproline standard curve. Kidney hydroxyproline contents were expressed as μg per mg protein, and the amount of protein was determined using the BCA Protein Assay Kit (Thermo Fisher Scientific).\nAt the end of the UUO study, the left kidney was fixed in Bouin’s solution and embedded in paraffin. Kidney sections were stained using picro-Sirius red solution (Waldeck). To quantify the interstitial fibrosis area, brightfield images in the corticomedullary region were captured using a digital camera (DFC295) at 200-fold magnification, and the positive areas in five fields per section were measured using ImageJ software (National Institute of Health).\nParaffin sections were deparaffinized and hydrophilized with xylene, 100–70% alcohol series and RO water, and then circles were drawn around the kidney sections. […] After washing with PBS, kidney sections were treated with PBS with Tween-20 (PBST), followed by incubation with Block Ace (DS Pharma Biomedical) at room temperature for 10 min. The sections were incubated with the primary antibody (anti-collagen I) at 4 °C overnight. After washing with PBS, kidney sections were treated with PBST, followed by incubation with secondary antibody at room temperature for 30 min. After washing with PBS, kidney sections were fixed with 1% glutaraldehyde solution at room temperature for 1 min. After washing with RO water, kidney sections were treated with PBST and then colored using a chromogenic substrate (Simple Stain DAB, Nichirei Bioscience). After washing with RO water, kidney sections were immersed in an eightfold-diluted hematoxylin solution for 1 min and washed with RO water immediately. […] For scoring of IHC analyses, brightfield images were captured using a digital camera (DFC295) at 200-fold magnification, and the score in one field per section was determined."}, "[2]": {"conditions": "INS018_055 3 mg/kg BID, individual animals, Fig 5C-D, 3 mg/kg"}, "[3]": {"conditions": "INS018_055 10 mg/kg BID, individual animals, Fig 5C-D, 10 mg/kg"}, "[4]": {"conditions": "INS018_055 30 mg/kg BID, individual animals, Fig 5C-D, 30 mg/kg"}},
  "note": "“And” between values parts separate entries of the source, which are not always exact repeats. Equal entries are not always repeated.",
  "data": [
    {"smiles": "CC(C)n1cnc(-c2ccc(F)cc2)c1-c1nc(C(=O)Nc2ccc(N3CCN(C)CC3)cc2)c[nH]1", "note": "[INS018_055, 2-[4-(4-fluorophenyl)-1-(prop-2-yl)imidazol-5-yl]-N-[4-(4-methylhexahydropyrazin-1-yl)phenyl]-1H-imidazole-4-carboxamide]", "values": [
      {"measurement": "IC50", "setting": "MRC-5 cells", "result": 27.1, "unit": "nM"},
      {"measurement": "IC50", "setting": "[1]", "result": "63 nM (2×) and 500 nM"},
      {"measurement": "a-SMA normalized by GAPDH", "setting": "HK-2 cells; 0.004572 uM", "result": 2.139},
      {"measurement": "a-SMA normalized by GAPDH", "setting": "HK-2 cells; 0.0411523 uM", "result": 1.835},
      {"measurement": "a-SMA normalized by GAPDH", "setting": "HK-2 cells; 0.123457 uM", "result": 1.612},
      {"measurement": "a-SMA normalized by GAPDH", "setting": "HK-2 cells; 0.37037 uM", "result": 1.401},
      {"measurement": "a-SMA normalized by GAPDH", "setting": "HK-2 cells; 3.33333 uM", "result": 1.182},
      {"measurement": "a-SMA normalized by GAPDH", "setting": "HK-2 cells; 10 uM", "result": 1.23},
      {"measurement": "IC50", "setting": "HK-2 cells; TGF-β 8 ng/ml, 48 h, single experiment, read-out: IC50 for α-SMA inhibition", "result": 104, "unit": "nM"},
      {"measurement": "IC50", "setting": "NHDF cells", "result": 25, "unit": "nM"},
      {"measurement": "LOAEL", "setting": "CD-1 mice", "result": 10, "unit": "mg/kg"},
      {"measurement": "Any Death", "setting": "healthy subjects; MAD any dose N=18", "result": "0 [0]"},
      {"measurement": "Any Death", "setting": "healthy subjects; SAD any dose N=30", "result": "0 [0]"},
      {"measurement": "Fibrosis area (sirius red positive area)", "setting": "C57BL/6 mice; [2]", "result": "2.24 and 2.26 and 1.61 and 1.34 and 1.14 and 1.04"},
      {"measurement": "Kidney hydroxyproline", "setting": "C57BL/6 mice; [2]", "result": "6.42 and 7.24 and 6.97 and 8.63 and 7.89 and 3.86 and 2.76 and 8.85"},
      {"measurement": "Fibrosis area (sirius red positive area)", "setting": "C57BL/6 mice; [3]", "result": "0.48 and 0.7 and 0.89 and 0.94 and 0.99 and 0.64 and 0.93 and 1.12"},
      {"measurement": "Kidney hydroxyproline", "setting": "C57BL/6 mice; [3]", "result": "4.39 and 2.86 and 3.32 and 6 and 3.14 and 6.84 and 3.33 and 3"},
      {"measurement": "Collagen Type 1 score", "setting": "C57BL/6 mice; [4]", "result": 2},
      {"measurement": "Fibrosis area (sirius red positive area)", "setting": "C57BL/6 mice; [4]", "result": "0.44 and 0.53 and 0.81 and 0.2 and 0.68 and 0.43 and 0.38 and 0.73"},
      {"measurement": "Kidney hydroxyproline", "setting": "C57BL/6 mice; [4]", "result": "2.37 and 2.39 and 2.44 and 2.78 and 2.29 and 3.08 and 2.31"},
      {"measurement": "Positive area (%), per mouse", "setting": "C57BL/6 mice; INS018_055 high dose group, value per mouse (501-508) over 5 photos", "result": "0.43% and 0.38% and 0.73% and 0.44% and 0.53% and 0.81% and 0.20% and 0.68%"},
      {"measurement": "Positive area (%), per mouse", "setting": "C57BL/6 mice; INS018_055 low dose group, value per mouse (301-308) over 5 photos", "result": "1.34% and 1.14% and 1.04% and 2.24% and 2.26% and 1.61%"},
      {"measurement": "Positive area (%), per mouse", "setting": "C57BL/6 mice; INS018_055 middle dose group, value per mouse (401-408) over 5 photos", "result": "0.94% and 0.99% and 0.64% and 0.93% and 1.12% and 0.48% and 0.70% and 0.89%"}
    ]}
  ]
}
